# Experimental data published in article PMC7175277, “Hydroxylamine Analogue of Agmatine: Magic Bullet for Arginine Decarboxylase” (Biomolecules, 2020).
# Experiments:
# [1] = tested on: DU145 prostate cancer cells; test: Intracellular polyamine pools of DU145 cells; type: cell-based; conditions: 3 days
# Experimental: DU145 prostate cancer cells were cultured in high-glucose Dulbecco’s Modified Eagle’s Medium supplemented with 10% heat-inactivated fetal bovine serum, 2 mM L-glutamine and 50 μg/mL gentamycin (all from Sigma-Aldrich). The cells were plated on 6-well plates and allowed to attach overnight. […] The cells were harvested, and the pellet was mixed with 150 μL of 5% sulphosalicylic acid containing 5 μM diaminoheptane (internal standard). Polyamine analysis was carried out as described previously.
# mouse kidney ODC = target: T1, mouse kidney ODC (Mus musculus, UniProt P00860); test: Assay of mouse kidney ODC activity; type: biochemical; conditions: 0.4 mM L-Orn; 0.4 mM PLP
# T1 construct: from tissue; host or cells: C57Bl/6J male mouse kidney, 12,000 g supernatant of the homogenate
# T1 sequence (P00860 1-461): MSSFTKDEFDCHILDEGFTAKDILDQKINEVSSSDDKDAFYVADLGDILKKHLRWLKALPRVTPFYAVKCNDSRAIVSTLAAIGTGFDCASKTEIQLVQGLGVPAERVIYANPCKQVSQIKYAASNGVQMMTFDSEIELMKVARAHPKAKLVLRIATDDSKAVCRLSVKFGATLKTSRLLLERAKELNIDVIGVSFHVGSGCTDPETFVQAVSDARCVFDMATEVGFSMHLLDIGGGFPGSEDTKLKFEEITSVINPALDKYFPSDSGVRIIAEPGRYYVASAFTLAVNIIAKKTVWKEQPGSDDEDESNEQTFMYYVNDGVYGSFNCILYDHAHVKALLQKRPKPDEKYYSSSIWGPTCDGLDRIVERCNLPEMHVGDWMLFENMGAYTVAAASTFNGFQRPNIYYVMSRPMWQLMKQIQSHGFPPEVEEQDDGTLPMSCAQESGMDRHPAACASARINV
# Experimental: C57Bl/6J male mouse kidney was homogenized with TissueLyzer (Qiagen) to 2 volumes of buffer containing 50 mM Tris-HCl pH 7.4, 1 mM DTT, 1 mM EDTA, 0.1% Triton X-100 and 1× Complete EDTA-free protease inhibitor cocktail (Roche) and centrifuged at 12,000 g for 30 min at +4 °C. Aliquots of the supernatant were mixed with 1–5000 μM of AO-Agm and the ODC assay was carried out as previously described. The reaction mixture contained 0.4 mM PLP and 0.4 mM L-Orn.
# [2] = tested on: Acremonium chrysogenum high-cephalosporin-yielding (HY) RNCM F-4081D; test: Fungal growth inhibition (drop-dilution, CD agar), HY strain; type: cell-based; conditions: Hapsidospora chrysogena, 336 h, read-out: Growth inhibition
# From the text: Two strains of Acremonium chrysogenum were used in this study: the wild-type (Brotzu) isolate ATCC 11550 (WT) and high-cephalosporin-yielding RNCM F-4081D (HY), derived from the WT [37]. The cultivation conditions were the same as previously described. The filamentous fungi were cultivated on agarized Czapek-Dox (CD) medium (30 g/L sucrose, 2 g/L NaNO3, 1 g/L K2HPO4, 0.5 g/L MgSO4×7 H2O, 0.5 g/L KCl, 0.01 g/L FeSO4×7 H2O, 20 g/L agar, pH 7.0–7.4). To determine the toxic effect of AO-Agm, APA, DFMA and DFMO on the growth of fungal cells the drop-dilution method was used with some modifications as described earlier. Cells were collected from agar slants and diluted with 0.9% NaCl solution up to OD600 = 0.5 (basic concentration), followed by serial tenfold dilutions with the same solution. […] The inoculated Petri dishes were incubated for 21 days at 26 °C. The inhibitory effects of the compounds were measured every three days after inoculation and evaluated by measuring the ratio of colony growth on agarized CD medium supplemented with AO-Agm, APA, DFMA, or DFMO to the growth in the control (agarized CD medium without any additions). The formula: growth inhibition % = [(Dc − Dt)/Dc] × 100, where Dc indicates the colony diameter in control set, and Dt indicates the colony diameter in the treatment set that was used to determine the percent of fungal growth inhibition. The data recorded were measured in triplicate and repeated at least twice.
# [3] = AO-Agm 10 μM in the presence of SC (1 mM)
# [4] = AO-Agm 100 μM in the presence of SC (1 mM)
# [5] = AO-Agm 1 mM in the presence of SC (1 mM)
structure (smiles),measurement,setting,value
"N=C(N)NCCCON [AO-Agm, 1-aminooxy-3-guanidinopropane]",Put,[1]; [3],922 ± 60 pmol/mg Protein
same,Spd,[1]; [3],6405 ± 61 pmol/mg Protein
same,Spm,[1]; [3],3903 ± 72 pmol/mg Protein
same,Put,"[1]; AO-Agm 10 μM, no SC",1515 ± 98 pmol/mg Protein
same,Spd,"[1]; AO-Agm 10 μM, no SC",7237 ± 73 pmol/mg Protein
same,Spm,"[1]; AO-Agm 10 μM, no SC",3782 ± 55 pmol/mg Protein
same,Put,[1]; [4],954 ± 115 pmol/mg Protein
same,Spd,[1]; [4],6280 ± 122 pmol/mg Protein
same,Spm,[1]; [4],3621 ± 87 pmol/mg Protein
same,Put,"[1]; AO-Agm 100 μM, no SC",1447 ± 43 pmol/mg Protein
same,Spd,"[1]; AO-Agm 100 μM, no SC",7047 ± 155 pmol/mg Protein
same,Spm,"[1]; AO-Agm 100 μM, no SC",3682 ± 152 pmol/mg Protein
same,Spd,[1]; [5],1074 ± 159 pmol/mg Protein
same,Spm,[1]; [5],2389 ± 105 pmol/mg Protein
same,Put,"[1]; AO-Agm 1 mM, no SC",1074 ± 30 pmol/mg Protein
same,Spd,"[1]; AO-Agm 1 mM, no SC",3609 ± 124 pmol/mg Protein
same,Spm,"[1]; AO-Agm 1 mM, no SC",3795 ± 98 pmol/mg Protein
same,IC50,mouse kidney ODC,5.3 ± 0.7 µM
same,inhibition at 5000 µM,[2],49%
